Values quoted from earlier work, collected in patent US6710051B1, “Screening method” (Klaus Trier APS, priority 1997, dated 2004).
Like-named read-outs stand apart in the source and are kept apart here.

Target: T1, skeletal RyR (Oryctolagus cuniculus, UniProt P11716)
T1 construct: Structure-activity Relationship of Xanthines and Skeletal Muscle Ryanodine Receptor/Ca^2+ Release Channel; from tissue; host or cells: Skeletal muscle
Details: cited from earlier work; for Bound [3H]ryanodine % of control / Bound [3H]ryanodine pmol/mg protein / Bound [3H]ryanodine, % of control, +1 mmol/l AMPPCP / Bound [3H]ryanodine, % of control, +3 mmol/l AMP: xanthine […]; for Bound [3H]ryanodine % of control / Bound [3H]ryanodine pmol/mg protein: 1 mmol/l AMPPCP; for Bound [3H]ryanodine pmol/mg protein: means±SD of 3-4 experiments; for effect on the [3H] ryanodine binding compared to the control xanthine: Table 3

[1] = control 1,3-dimethylxanthine = 100
[2] = control 3,7-dimethylxanthine = 100

T1 sequence (P11716 whole entry): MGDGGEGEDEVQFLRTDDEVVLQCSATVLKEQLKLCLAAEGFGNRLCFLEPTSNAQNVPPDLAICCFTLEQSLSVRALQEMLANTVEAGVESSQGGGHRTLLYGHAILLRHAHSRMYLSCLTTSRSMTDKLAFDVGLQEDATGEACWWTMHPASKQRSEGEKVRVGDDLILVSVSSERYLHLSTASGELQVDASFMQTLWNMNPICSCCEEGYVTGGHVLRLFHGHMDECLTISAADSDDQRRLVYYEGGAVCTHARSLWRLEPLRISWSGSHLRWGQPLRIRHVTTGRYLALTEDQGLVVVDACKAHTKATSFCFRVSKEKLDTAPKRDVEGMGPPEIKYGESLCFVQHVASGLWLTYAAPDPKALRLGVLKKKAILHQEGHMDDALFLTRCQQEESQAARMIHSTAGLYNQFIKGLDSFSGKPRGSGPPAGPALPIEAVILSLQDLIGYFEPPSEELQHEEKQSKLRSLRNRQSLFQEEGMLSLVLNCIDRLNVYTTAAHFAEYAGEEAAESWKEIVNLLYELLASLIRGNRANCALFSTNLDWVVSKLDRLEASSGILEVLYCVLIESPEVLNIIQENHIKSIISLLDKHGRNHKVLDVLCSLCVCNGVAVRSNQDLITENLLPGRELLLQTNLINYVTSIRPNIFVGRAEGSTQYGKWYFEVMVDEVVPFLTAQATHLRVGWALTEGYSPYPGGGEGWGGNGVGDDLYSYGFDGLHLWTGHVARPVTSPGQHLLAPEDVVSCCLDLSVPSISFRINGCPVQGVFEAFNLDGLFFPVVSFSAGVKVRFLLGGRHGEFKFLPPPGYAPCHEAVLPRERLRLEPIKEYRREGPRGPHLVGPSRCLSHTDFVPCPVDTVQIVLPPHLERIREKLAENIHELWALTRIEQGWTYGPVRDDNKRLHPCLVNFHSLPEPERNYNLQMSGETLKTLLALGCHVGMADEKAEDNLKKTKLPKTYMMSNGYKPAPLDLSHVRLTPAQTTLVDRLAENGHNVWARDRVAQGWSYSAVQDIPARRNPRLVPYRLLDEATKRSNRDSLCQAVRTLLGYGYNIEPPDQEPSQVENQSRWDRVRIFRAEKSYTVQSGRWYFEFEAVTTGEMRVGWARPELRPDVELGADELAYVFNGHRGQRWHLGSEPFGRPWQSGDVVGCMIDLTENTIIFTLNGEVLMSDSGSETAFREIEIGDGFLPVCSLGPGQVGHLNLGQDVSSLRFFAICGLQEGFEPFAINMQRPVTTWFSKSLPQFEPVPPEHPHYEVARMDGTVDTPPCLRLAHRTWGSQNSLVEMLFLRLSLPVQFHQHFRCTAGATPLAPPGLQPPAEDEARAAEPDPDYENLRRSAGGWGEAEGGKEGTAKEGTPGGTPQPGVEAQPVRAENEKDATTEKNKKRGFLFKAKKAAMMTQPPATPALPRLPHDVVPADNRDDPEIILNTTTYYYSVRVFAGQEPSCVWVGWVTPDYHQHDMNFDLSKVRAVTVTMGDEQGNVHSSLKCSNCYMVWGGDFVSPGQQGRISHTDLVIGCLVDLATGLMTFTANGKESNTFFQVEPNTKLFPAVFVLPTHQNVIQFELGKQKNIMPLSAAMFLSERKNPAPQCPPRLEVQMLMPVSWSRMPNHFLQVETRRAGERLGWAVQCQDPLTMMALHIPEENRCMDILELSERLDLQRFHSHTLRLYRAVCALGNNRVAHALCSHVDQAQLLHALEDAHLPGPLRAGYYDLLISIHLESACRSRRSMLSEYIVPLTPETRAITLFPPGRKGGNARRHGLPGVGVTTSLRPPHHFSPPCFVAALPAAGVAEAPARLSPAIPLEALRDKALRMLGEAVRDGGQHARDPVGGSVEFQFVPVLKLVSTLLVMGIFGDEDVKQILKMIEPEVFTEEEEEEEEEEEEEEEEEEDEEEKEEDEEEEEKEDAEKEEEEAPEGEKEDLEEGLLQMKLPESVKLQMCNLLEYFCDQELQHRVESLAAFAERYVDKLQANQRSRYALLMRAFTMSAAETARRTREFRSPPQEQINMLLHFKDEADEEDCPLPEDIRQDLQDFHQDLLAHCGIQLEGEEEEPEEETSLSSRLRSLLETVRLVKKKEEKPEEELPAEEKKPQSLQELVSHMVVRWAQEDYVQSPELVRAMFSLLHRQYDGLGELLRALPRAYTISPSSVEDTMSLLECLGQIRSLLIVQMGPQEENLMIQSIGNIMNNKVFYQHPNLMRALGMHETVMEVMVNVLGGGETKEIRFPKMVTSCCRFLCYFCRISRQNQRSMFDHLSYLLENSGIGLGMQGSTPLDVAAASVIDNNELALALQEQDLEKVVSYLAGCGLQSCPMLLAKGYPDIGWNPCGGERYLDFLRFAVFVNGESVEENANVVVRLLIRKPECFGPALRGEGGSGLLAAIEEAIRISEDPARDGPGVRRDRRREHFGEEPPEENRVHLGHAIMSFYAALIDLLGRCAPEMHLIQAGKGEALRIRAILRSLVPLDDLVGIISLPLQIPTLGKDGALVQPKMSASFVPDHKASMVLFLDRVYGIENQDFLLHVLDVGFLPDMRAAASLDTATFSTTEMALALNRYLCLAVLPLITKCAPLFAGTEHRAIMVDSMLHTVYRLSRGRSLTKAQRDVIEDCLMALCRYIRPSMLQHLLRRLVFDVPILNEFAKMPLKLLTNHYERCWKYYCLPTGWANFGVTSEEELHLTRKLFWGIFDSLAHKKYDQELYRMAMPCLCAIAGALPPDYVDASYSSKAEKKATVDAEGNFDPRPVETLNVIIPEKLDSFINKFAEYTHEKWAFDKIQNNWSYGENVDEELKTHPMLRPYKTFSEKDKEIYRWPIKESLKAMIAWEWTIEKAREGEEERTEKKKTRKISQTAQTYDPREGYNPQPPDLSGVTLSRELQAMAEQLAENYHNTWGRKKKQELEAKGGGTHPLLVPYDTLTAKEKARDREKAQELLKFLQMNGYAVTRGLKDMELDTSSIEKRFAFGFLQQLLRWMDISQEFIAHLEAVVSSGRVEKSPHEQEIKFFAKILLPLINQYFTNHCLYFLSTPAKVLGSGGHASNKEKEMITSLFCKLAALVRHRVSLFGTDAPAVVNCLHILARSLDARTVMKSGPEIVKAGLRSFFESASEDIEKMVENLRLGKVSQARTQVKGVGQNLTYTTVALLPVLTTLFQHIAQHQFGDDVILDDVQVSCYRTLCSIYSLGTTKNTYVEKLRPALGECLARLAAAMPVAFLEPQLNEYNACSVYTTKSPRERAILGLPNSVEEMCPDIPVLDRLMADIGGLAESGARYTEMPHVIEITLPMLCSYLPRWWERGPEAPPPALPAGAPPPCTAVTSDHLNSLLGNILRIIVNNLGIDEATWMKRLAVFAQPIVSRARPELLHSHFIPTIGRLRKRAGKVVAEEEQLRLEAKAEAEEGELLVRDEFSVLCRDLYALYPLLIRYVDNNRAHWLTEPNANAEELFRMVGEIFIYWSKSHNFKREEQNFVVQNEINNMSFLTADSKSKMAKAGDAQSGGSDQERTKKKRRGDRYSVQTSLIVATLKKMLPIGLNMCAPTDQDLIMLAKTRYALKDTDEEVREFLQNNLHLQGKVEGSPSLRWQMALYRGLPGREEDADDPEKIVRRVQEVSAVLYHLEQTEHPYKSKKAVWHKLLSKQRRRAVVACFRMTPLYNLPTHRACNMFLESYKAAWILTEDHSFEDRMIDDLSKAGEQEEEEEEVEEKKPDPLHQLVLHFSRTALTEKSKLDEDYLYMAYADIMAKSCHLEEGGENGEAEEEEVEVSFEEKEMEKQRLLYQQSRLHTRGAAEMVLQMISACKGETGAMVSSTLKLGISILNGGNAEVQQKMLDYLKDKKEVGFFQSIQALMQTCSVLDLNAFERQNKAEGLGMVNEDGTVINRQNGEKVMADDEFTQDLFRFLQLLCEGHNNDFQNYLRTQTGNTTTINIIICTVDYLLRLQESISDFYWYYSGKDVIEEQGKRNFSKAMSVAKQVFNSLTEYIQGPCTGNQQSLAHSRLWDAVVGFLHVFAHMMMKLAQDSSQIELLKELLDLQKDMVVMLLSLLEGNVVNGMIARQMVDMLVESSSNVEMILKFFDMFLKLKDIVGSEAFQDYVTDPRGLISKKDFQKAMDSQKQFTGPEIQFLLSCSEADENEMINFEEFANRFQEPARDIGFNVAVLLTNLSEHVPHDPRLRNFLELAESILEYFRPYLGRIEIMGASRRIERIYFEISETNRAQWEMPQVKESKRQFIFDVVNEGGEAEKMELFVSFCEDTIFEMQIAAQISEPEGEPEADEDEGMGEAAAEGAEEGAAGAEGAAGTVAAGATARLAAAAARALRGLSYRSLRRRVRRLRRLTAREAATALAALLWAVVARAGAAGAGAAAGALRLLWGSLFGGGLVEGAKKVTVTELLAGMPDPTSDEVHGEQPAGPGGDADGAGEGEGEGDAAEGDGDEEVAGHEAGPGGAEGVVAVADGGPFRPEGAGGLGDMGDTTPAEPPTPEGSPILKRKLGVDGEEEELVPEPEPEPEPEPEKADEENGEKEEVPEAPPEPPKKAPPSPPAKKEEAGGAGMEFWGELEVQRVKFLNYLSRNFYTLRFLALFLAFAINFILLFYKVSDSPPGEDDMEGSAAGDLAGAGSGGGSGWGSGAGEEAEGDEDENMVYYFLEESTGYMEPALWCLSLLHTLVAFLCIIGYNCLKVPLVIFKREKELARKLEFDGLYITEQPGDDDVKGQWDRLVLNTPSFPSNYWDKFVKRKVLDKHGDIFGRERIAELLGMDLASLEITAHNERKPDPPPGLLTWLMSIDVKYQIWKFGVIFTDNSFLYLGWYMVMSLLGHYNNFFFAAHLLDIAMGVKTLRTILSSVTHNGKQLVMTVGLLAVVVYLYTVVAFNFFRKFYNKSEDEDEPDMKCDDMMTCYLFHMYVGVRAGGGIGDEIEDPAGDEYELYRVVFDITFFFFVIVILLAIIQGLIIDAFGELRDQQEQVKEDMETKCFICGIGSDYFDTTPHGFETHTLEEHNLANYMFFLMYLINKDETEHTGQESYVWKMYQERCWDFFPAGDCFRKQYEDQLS

Compound	Bound [3H]ryanodine % of control (control (-xanthine) = 100)	Bound [3H]ryanodine pmol/mg protein	Bound [3H]ryanodine, % of control, +1 mmol/l AMPPCP (control (-xanthine) = 100)	Bound [3H]ryanodine, % of control, +3 mmol/l AMP (control (-xanthine) = 100)	Bound [3H]ryanodine % of control [1]	effect on the [3H] ryanodine binding compared to the control xanthine	Bound [3H]ryanodine % of control [2]
CCCn1c(=O)[nH]c(=O)c2[nH]cnc21 [3-Propylxanthine]	226 ± 14 % of control	3.82 ± 0.23 pmol/mg protein	226 ± 14 % of control	203 ± 14 % of control			
Cn1c(=O)[nH]c2nc[nH]c2c1=O [1-Methylxanthine]	179 ± 22 % of control	3.02 ± 0.38 pmol/mg protein	179 ± 22 % of control	167 ± 16 % of control			
Cn1c(=O)c2[nH]c(CCC(=O)O)nc2n(C)c1=O [8-Propionic acid 1,3-dimethylxanthine]		1.73 ± 0.09 pmol/mg protein	102 ± 5 % of control	100 ± 11 % of control	60 ± 3 % of control		
Cn1c(=O)c2ncn(C)c2n(C)c1=O [1,3,9-Trimethylxanthine]		1.77 ± 0.12 pmol/mg protein	105 ± 7 % of control	103 ± 15 % of control			
Cn1c(=O)c2c(ncn2CC(O)CO)n(C)c1=O (stereo not drawn) [7-(2,3-Dihydroxypropyl)-1,3-dimethylxanthine]		1.97 ± 0.16 pmol/mg protein	117 ± 9 % of control	123 ± 16 % of control	69 ± 6 % of control		
Cn1c(=O)[nH]c2c(ncn2C)c1=O [1,9-Dimethylxanthine]	84 ± 14 % of control	1.42 ± 0.23 pmol/mg protein	84 ± 14 % of control	86 ± 18 % of control		less than 110%	
CN1CN(C)c2c1[nH]c(=O)[nH]c2=O [7,9-Dimethylxanthine]	102 ± 13 % of control	1.73 ± 0.22 pmol/mg protein	102 ± 13 % of control	100 ± 15 % of control			
CCCn1cnc2[nH]c(=O)[nH]c(=O)c21 [7-Propylxanthine]	270 ± 12 % of control	4.57 ± 0.20 pmol/mg protein	270 ± 12 % of control	234 ± 14 % of control			
CCCn1c(=O)c2c(ncn2C)n(CCC)c1=O [1,3-Dipropyl-7-methylxanthine]		4.96 ± 0.39 pmol/mg protein	295 ± 23 % of control	326 ± 30 % of control			
CCCn1cnc2c(=O)[nH]c(=O)[nH]c21 [9-Propylxanthine]	96 ± 12 % of control	1.62 ± 0.20 pmol/mg protein	96 ± 12 % of control	97 ± 23 % of control			
Cn1c(=O)[nH]c2ncn(C)c2c1=O [1,7-Dimethylxanthine]	360 ± 28 % of control	6.08 ± 0.47 pmol/mg protein	360 ± 28 % of control	378 ± 34 % of control			
C#CCn1c(=O)c2c(ncn2C)n(C)c1=O [3,7-Dimethyl-1-propargylxanthine]		3.88 ± 0.10 pmol/mg protein	230 ± 6 % of control	201 ± 33 % of control			144 ± 3 % of control
Cn1c(=O)c2[nH]c(C3CCCC3)nc2n(C)c1=O [8-Cyclopentyl-1,3-dimethylxanthine]		2.25 ± 0.28 pmol/mg protein	133 ± 6 % of control	142 ± 14 % of control	78 ± 8 % of control		
CC(C)Cn1c(=O)n(C)c(=O)c2[nH]cnc21 [3-Isobutyl-1-methylxanthine]	175 ± 20 % of control	2.96 ± 0.33 pmol/mg protein	175 ± 20 % of control	139 ± 11 % of control			
CC(=O)CCCCn1c(=O)c2c(ncn2C)n(C)c1=O [1-(5-Oxohexyl)-3,7-dimethylxanthine]		3.18 ± 0.08 pmol/mg protein	188 ± 5 % of control	185 ± 25 % of control			118 ± 3 % of control
Cn1cnc2c(=O)[nH]c(=O)n(C)c21 [3,9-Dimethylxanthine]	143 ± 20 % of control	2.42 ± 0.34 pmol/mg protein	143 ± 20 % of control	141 ± 11 % of control			
Cc1nc2[nH]c(=O)[nH]c(=O)c2[nH]1 [8-Methylxanthine]	95 ± 20 % of control	1.61 ± 0.33 pmol/mg protein	95 ± 20 % of control	90 ± 11 % of control			
Cn1c(=O)c2[nH]c(-c3ccc(S(=O)(=O)O)cc3)nc2n(C)c1=O [8-(p-Sulfophenyl)-1,3-dimethylxanthine]		1.55 ± 0.28 pmol/mg protein	92 ± 17 % of control	91 ± 16 % of control	54 ± 6 % of control		
Cn1c(=O)c2c(ncn2CCO)n(C)c1=O [7β-Hydroxyethyl-1,3-dimethylxanthine]		2.10 ± 0.26 pmol/mg protein	124 ± 15 % of control	134 ± 15 % of control	73 ± 4 % of control		
Cn1c(=O)c2[nH]c(-c3ccccc3)nc2n(C)c1=O [8-Phenyl-1,3-dimethylxanthine]		1.67 ± 0.31 pmol/mg protein	99 ± 18 % of control	103 ± 14 % of control	58 ± 9 % of control		
Cn1c(=O)c2[nH]c(Cl)nc2n(C)c1=O [8-Chloro-1,3-dimethylxanthine]		1.96 ± 0.13 pmol/mg protein	116 ± 17 % of control	108 ± 14 % of control	68 ± 4 % of control		
Cn1c(=O)[nH]c(=O)c2[nH]cnc21 [3-Methylxanthine]	134 ± 9 % of control	2.26 ± 0.15 pmol/mg protein	134 ± 9 % of control	137 ± 10 % of control			
CCCCCCn1c(=O)c2c(ncn2C)n(C)c1=O [1-Hexyl-3,7-dimethylxanthine]		6.99 ± 0.80 pmol/mg protein	414 ± 47 % of control	449 ± 28 % of control		more than 200%	259 ± 24 % of control
Cn1c(=O)c2c(ncn2CCCl)n(C)c1=O [7β-Chloroethyl-1,3-dimethylxanthine]		3.88 ± 0.16 pmol/mg protein	230 ± 9 % of control	256 ± 34 % of control	135 ± 6 % of control		
